Results taken from US10065990B2, “Cyclic peptide compound, and preparation method, pharmaceutical composition and use thereof” (HANGZHOU GUANYU BIO-MEDICAL CO., LTD, priority 2013, dated 2018).
Like-named read-outs stand apart in the source and are kept apart here.

Tests used:
[1] = tested on: SGC-7901 (human gastric cancer cells); assay: MTT cancer cell growth inhibition; format: cell-based; details: MTT, 72 hours incubation, SGC-7901 cells, read-out: GI50 SGC-7901
Description: (§1) MTT assay principle is yellow MTT can penetrate membrane into the cell, succinic dehydrogenase of the mitochondria in living cells can make exogenous MTT reduction of insoluble in water of blue-violet acicular formazan for crystallization and deposition in the cell, crystallization can be dissolved dimethyl sulfoxide (DMSO) solution, detected its absorbance at 490 nm/570 nm wavelength by enzyme-linked immunosorbent assay, which can reflect the number of cells.
(§2) Using DMEM+10% FBS culture medium or using 1640+10% FBS culture, respectively.
(§3) a) Cells were seeded in 96-well plates with the inoculation of 1500/well, 190 μl/hole, 37° C., 5% of CO2 incubator overnight;
(§4) b) The next day each well was added 10 μl of different drugs. The final concentration of drug was 10^−5˜10^−10M, three parallel holes; 37° C., 5% CO2 culture incubator for 72 hours incubation;
(§5) c) Per well was added 20 μl 5 mg/ml of MTT, 37° C., 5% CO2 culture incubator for 4 hours incubation;
(§6) d) The supernatant was discarded. Each well was added 100 μl of DMSO and oscillation;
(§7) e) 570 nm readings. Calculate cell viability. GI50 calculation based on the results.

[2] = tested on: MDA-MB-231 (breast cancer cells); assay: MTT cancer cell growth inhibition; format: cell-based
Description: as §1, §2, §3, §4, §5, §6, §7

[3] = tested on: Bel-7402 (human hepatoma cells); assay: MTT cancer cell growth inhibition; format: cell-based; details: MTT, 72 hours incubation, Bel-7402 cells, read-out: GI50 Bel-7402
Description: as §1, §2, §3, §4, §5, §6, §7

[4] = tested on: lncap (prostate cancer cells); assay: MTT cancer cell growth inhibition; format: cell-based; details: MTT, 72 hours incubation, read-out: GI50 lnca
Description: as §1, §2, §3, §4, §5, §6, §7

[5] = tested on: H1975 (non-small cell lung adenocarcinoma); assay: MTT cancer cell growth inhibition; format: cell-based; details: MTT, 72 hours incubation, H1975 cells, read-out: GI50 H1975
Description: as §1, §2, §3, §4, §5, §6, §7

[6] = tested on: MOLT-4 (human acute lymphoblastic leukemia cells); assay: MTT cancer cell growth inhibition; format: cell-based; details: MTT, 72 hours incubation, read-out: GI50 Mol
Description: as §1, §2, §3, §4, §5, §6, §7

[7] = tested on: A549 (human lung cancer cells); assay: MTT cancer cell growth inhibition; format: cell-based; details: MTT, 72 hours incubation, read-out: GI50 A54
Description: as §1, §2, §3, §4, §5, §6, §7

[8] = tested on: HT1080 (human fibrosarcoma cells); assay: MTT cancer cell growth inhibition; format: cell-based; details: MTT, 72 hours incubation, read-out: GI50 HT1
Description: as §1, §2, §3, §4, §5, §6, §7

[9] = tested on: HCC827 (human non-small cell lung cancer cells); assay: MTT cancer cell growth inhibition; format: cell-based; details: MTT, 72 hours incubation, HCC827 cells, read-out: GI50 HCC827
Description: as §1, §2, §3, §4, §5, §6, §7

[10] = tested on: KBM5-T315I (human chronic myelogenous leukemia); assay: MTT cancer cell growth inhibition; format: cell-based; details: MTT, 72 hours incubation, KBM5-T315I cells, read-out: GI50 KBM5-T315I
Description: as §1, §2, §3, §4, §5, §6, §7

[11] = tested on: DU145 (human prostate cancer cells); assay: MTT cancer cell growth inhibition; format: cell-based; details: MTT, 72 hours incubation, read-out: GI50 Du1
Description: as §1, §2, §3, §4, §5, §6, §7

[12] = tested on: BGC-823 (human gastric cancer cells); assay: MTT cancer cell growth inhibition; format: cell-based; details: MTT, 72 hours incubation, read-out: GI50 BG
Description: as §1, §2, §3, §4, §5, §6, §7

[13] = tested on: K562 (human leukemia cells); assay: MTT cancer cell growth inhibition; format: cell-based; details: MTT, 72 hours incubation, K562 cells, read-out: GI50 K562
Description: as §1, §2, §3, §4, §5, §6, §7

[14] = tested on: MCF-7 (human breast cancer cells); assay: MTT cancer cell growth inhibition; format: cell-based; details: 72 hours incubation, read-out: GI50 MCF
Description: as §1, §2, §3, §4, §5, §6, §7

[15] = tested on: Huh-7 (human hepatoma cells); assay: MTT cancer cell growth inhibition; format: cell-based; details: MTT, 72 hours incubation, Huh-7 cells, read-out: GI50 Huh-7
Description: as §1, §2, §3, §4, §5, §6, §7

[16] = tested on: Hela (human cervical cancer cells); assay: MTT cancer cell growth inhibition; format: cell-based; details: MTT, 72 hours incubation, read-out: GI50 Hela
Description: as §1, §2, §3, §4, §5, §6, §7

[17] = tested on: KBM-5 (human chronic myelogenous leukemia); assay: MTT cancer cell growth inhibition; format: cell-based; details: MTT, 72 hours incubation, KBM-5 cells, read-out: GI50 KBM-5
Description: as §1, §2, §3, §4, §5, §6, §7

[18] = tested on: U937 (human leukemia cells); assay: MTT cancer cell growth inhibition; format: cell-based; details: MTT, 72 hours incubation, read-out: GI50 U93
Description: as §1, §2, §3, §4, §5, §6, §7

[19] = tested on: N-87 (human gastric cancer cells); assay: MTT cancer cell growth inhibition; format: cell-based; details: MTT, 72 hours incubation, N-87 cells, read-out: GI50 N-87
Description: as §1, §2, §3, §4, §5, §6, §7

[20] = tested on: PANC-1 (Pac-1, human pancreatic cancer cells); assay: MTT cancer cell growth inhibition; format: cell-based; details: MTT, 72 hours incubation, read-out: GI50 PAN
Description: as §1, §2, §3, §4, §5, §6, §7

[21] = molecular target: T1, HDAC7 (Homo sapiens, UniProt Q8WUI4); assay: HDAC biochemical activity measurement (fluorescent substrate deacetylation);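 further: fluorogenic deacetylation assay using acetyl-lysine substrate at 20 µM, enzyme and compound incubated 30 min at 37 °C, then developer added, fluorescence read at 360/460 nm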; details: HDAC7; 37° C. 30 minutes
T1 sequence (Q8WUI4 1-952): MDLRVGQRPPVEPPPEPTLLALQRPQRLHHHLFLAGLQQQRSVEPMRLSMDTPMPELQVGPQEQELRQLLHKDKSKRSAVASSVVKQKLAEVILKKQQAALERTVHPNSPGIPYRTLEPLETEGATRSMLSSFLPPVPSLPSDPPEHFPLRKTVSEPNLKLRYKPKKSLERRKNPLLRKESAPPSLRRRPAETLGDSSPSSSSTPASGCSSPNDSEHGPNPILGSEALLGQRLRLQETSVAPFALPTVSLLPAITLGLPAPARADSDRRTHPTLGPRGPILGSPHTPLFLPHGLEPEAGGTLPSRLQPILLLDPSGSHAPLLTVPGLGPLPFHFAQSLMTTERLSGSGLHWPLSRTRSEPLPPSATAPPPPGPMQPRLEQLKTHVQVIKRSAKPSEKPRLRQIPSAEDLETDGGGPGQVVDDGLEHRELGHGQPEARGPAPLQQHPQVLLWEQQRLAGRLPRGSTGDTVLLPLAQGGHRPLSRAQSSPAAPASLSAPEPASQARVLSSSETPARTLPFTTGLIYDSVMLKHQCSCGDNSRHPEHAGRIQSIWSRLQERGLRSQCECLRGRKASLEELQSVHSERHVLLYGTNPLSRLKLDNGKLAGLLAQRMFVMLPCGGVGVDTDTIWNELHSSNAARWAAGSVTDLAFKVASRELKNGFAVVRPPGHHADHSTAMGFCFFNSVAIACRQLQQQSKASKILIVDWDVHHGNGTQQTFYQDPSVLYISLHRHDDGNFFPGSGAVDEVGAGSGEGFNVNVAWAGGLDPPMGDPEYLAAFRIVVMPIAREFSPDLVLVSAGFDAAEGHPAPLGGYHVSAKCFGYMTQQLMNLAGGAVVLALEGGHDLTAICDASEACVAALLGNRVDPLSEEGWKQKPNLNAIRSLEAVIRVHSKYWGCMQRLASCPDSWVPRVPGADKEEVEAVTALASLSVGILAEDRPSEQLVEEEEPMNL

Compound `C/C=C1\NC(=O)c2cc(SC)cc(n2)CNC(=O)C[C@@H](/C=C/CCSC(C)=O)OC(=O)[C@H](C)NC1=O` [Compound 214] has a GI50 [1] of 0.068 µM, a GI50 ([2]; read-out: GI50 MDA-MB-231, MTT, 72 hours incubation, MDA-MB-231 cells) of 0.015 µM and a GI50 [3] of 0.071 µM. It also gave a GI50 ([4]; lncap cells) of 0.11 µM, a GI50 [5] of 0.063 µM and a GI50 ([6]; MOLT-4 cells) of 0.05 µM. For the same compound, the GI50 ([7]; A549 cells) was 0.09 µM, the GI50 ([8]; HT1080 cells) was 0.04 µM and the GI50 [9] was 0.035 µM. For the same compound, the GI50 [10] was 0.073 µM, the GI50 ([11]; DU145 cells) was 0.04 µM and the GI50 ([12]; BGC-823 cells) was 0.02 µM. The GI50 [13] was 0.071 µM, the GI50 ([14]; MCF-7 cells) was 0.05 µM and the GI50 [15] was 0.041 µM. It also gave a GI50 ([16]; Hela cells) of 0.06 µM, a GI50 [17] of 0.019 µM and a GI50 ([18]; U937 cells) of 0.05 µM. For the same compound, the GI50 [19] was 0.095 µM, the GI50 ([20]; PANC-1 cells) was 0.04 µM and the “IC50 HDAC7” value [21] was “no activity”.
`C/C=C1\NC(=O)c2cccc(n2)CNC(=O)C[C@@H](/C=C/CCS)OC(=O)[C@H](CCCCNC(=O)OCC2c3ccccc3-c3ccccc32)NC1=O` [Compound 119] gave a GI50 ([1]; Homo sapiens, SGC-7901, 72 h) of 0.034 µM, a GI50 ([2]; Homo sapiens, MDA-MB-231, 72 h, read-out: GI50 MDA-MB-231, MTT, 72 hours incubation, MDA-MB-231 cells) of 0.027 µM and a GI50 ([3]; Homo sapiens, Bel-7402, 72 h) of 0.037 µM. For the same compound, the GI50 ([4]; Homo sapiens, LNCaP, 72 h) was 0.09 µM, the GI50 ([5]; Homo sapiens, NCI-H1975, 72 h) was 0.038 µM and the GI50 ([6]; Homo sapiens, MOLT-4, 72 h) was 0.09 µM. For the same compound, the GI50 ([7]; Homo sapiens, A549, 72 h) was 0.06 µM, the GI50 ([8]; Homo sapiens, HT-1080, 72 h) was 0.09 µM and the GI50 ([9]; Homo sapiens, HCC827, 72 h) was 0.037 µM. It also gave a GI50 ([10]; Homo sapiens, 72 h) of 0.028 µM, a GI50 ([11]; Homo sapiens, DU-145, 72 h) of 0.05 µM and a GI50 ([12]; Homo sapiens, BGC-823, 72 h) of 0.04 µM. It also gave a GI50 ([13]; Homo sapiens, K562, 72 h) of 0.036 µM, a GI50 ([14]; Homo sapiens, MCF7, 72 h) of 0.05 µM and a GI50 ([15]; Homo sapiens, Huh-7, 72 h) of 0.026 µM. The GI50 ([16]; Homo sapiens, HeLa, 72 h) was 0.09 µM, the GI50 ([17]; Homo sapiens, KBM5, 72 h) was 0.062 µM and the GI50 ([18]; Homo sapiens, U-937, 72 h) was 0.06 µM. The GI50 ([19]; Homo sapiens, 72 h) was 0.038 µM, the GI50 ([20]; Homo sapiens, PANC-1, 72 h) was 0.04 µM and the “IC50 HDAC7” value [21] was “no activity”.
